From US7261906B2, “Anti-cancer therapy agent of arsenic hexoxide (As4O6) of a natural chemical substance and its pharmaceutical composition” (priority 1998, dated 2007)

Tests used:
3T3-fibroblast cells = experiment: Cytotoxicity in 3T3-fibroblast cells, time course (XTT method); type: cell-based, murine
Procedure: Cloned tumor cells of P388 leukemia, L1210 leukemia, L5178Y lymphoma, Colon26-M3.1 carcinoma, and B16-BL6 melanoma, from mice, and K562 leukemia, liver carcinoma HEP-G2, Hs578T breast cancer, AN-3-CA adenocarcinoma, DLD colon carcinoma, and HeLa epitheloid carcinoma, from human beings, were cultured in EMM, DMEM, or RMPI-1640 culture media containing 7.5% fetal bovine serum (FBS), as described in ATCC manual. […] Tumor cells in test wells were incubated in 5% CO2 incubator at 37° C. for 2 days.
For further study of the cytotoxicity of each substance on cloned tumor cells, 3T3-fibroblast cells were cultured in test wells as described in experiment 1.

[1] = test system: colon26-M3.1 carcinoma cells; experiment: Inhibitory effect of intravenously-administered HD-2 on cancer metastasis (lung); type: in vivo, mice
Procedure: B16-BL6 melanoma cells or colon26-M3.1 carcinoma cells were inoculated into mice and number of metastatic tumor masses appearing in lungs was counted. […] The peak activity was observed a: 1-mg dose with very high anticancer efficacy (86%). […] This indicated oral administration of HD-2 was quite effective for treatment of established cancer.
In this experiment, HD-2 was administered intravenously with dosage less than 500 mg/kg body weight per day.

[2] = 1 μg intravenous administration +1
[3] = 10 μg intravenous administration +1
[4] = 10 μg intravenous administration +7
[5] = 100 μg intravenous administration +1

N.N.[Cl][Pt][Cl] [cisplatin, reference compound]
morphological observation of cells (3T3-fibroblast cells; 3T3, 34 hours of treatment): partial necrosis of tumor cells or slowing of tumor growth
tumor growth (3T3-fibroblast cells; 3T3, after 24 hours of administration): partial inhibition of tumor growth
inhibitory rate [1, 2]: 34.2%
number of metastatic mass, mean ± SD [1, 2]: 102 ± 28
inhibitory rate [1, 3]: 87.1%
number of metastatic mass, mean ± SD [1, 3]: 20 ± 13
inhibitory rate [1, 4]: 50.0%
number of metastatic mass, mean ± SD [1, 4]: 77 ± 12
inhibitory rate [1, 5]: 63.2%
number of metastatic mass, mean ± SD [1, 5]: 57 ± 22
